Source: ChEMBL document CHEMBL3112450, “Synthesis and in vitro antitumor evaluation of primary amine substituted quinazoline linked benzimidazole” (Bioorg Med Chem Lett, 2014)

Columns and labels:
Assay type in all cases: functional
[1] = tested on: UACC-62; assay: Cytotoxicity against human UACC62 cells assessed as growth inhibition at 10 uM after 48 hrs by SRB assay; conditions: UACC-62, 48 h, read-out: GI
[2] = tested on: SF-268; assay: Cytotoxicity against human SF268 cells assessed as growth inhibition at 10 uM after 48 hrs by SRB assay; conditions: SF-268, 48 h, read-out: GI
[3] = tested on: SN12C; assay: Cytotoxicity against human SN12C cells assessed as growth inhibition at 10 uM after 48 hrs by SRB assay; conditions: read-out: GI
[4] = tested on: NCI-H522; assay: Cytotoxicity against human NCI-H522 cells assessed as growth inhibition at 10 uM after 48 hrs by SRB assay; conditions: NCI-H522, 48 h, read-out: GI
[5] = tested on: A549; assay: Cytotoxicity against human A549 cells assessed as growth inhibition at 10 uM after 48 hrs by SRB assay; conditions: A549, 48 h, read-out: GI
[6] = tested on: DU-145; assay: Cytotoxicity against human DU145 cells assessed as growth inhibition at 10 uM after 48 hrs by SRB assay; conditions: DU-145, 48 h, read-out: GI
[7] = tested on: SF-295; assay: Cytotoxicity against human SF295 cells assessed as growth inhibition at 10 uM after 48 hrs by SRB assay; conditions: SF-295, 48 h, read-out: GI
[8] = tested on: IGROV-1; assay: Cytotoxicity against human IGROV1 cells assessed as growth inhibition at 10 uM after 48 hrs by SRB assay; conditions: IGROV-1, 48 h, read-out: GI
[9] = tested on: OVCAR-3; assay: Cytotoxicity against human OVCAR3 cells assessed as growth inhibition at 10 uM after 48 hrs by SRB assay; conditions: OVCAR-3, 48 h, read-out: GI
[10] = tested on: ACHN; assay: Cytotoxicity against human ACHN cells assessed as growth inhibition at 10 uM after 48 hrs by SRB assay; conditions: read-out: GI
[11] = tested on: M14; assay: Cytotoxicity against human M14 cells assessed as growth inhibition at 10 uM after 48 hrs by SRB assay; conditions: M14, 48 h, read-out: GI
[12] = tested on: SK-MEL-28; assay: Cytotoxicity against human SK-MEL-28 cells assessed as growth inhibition at 10 uM after 48 hrs by SRB assay; conditions: SK-MEL-28, 48 h, read-out: GI
[13] = tested on: SK-MEL-2; assay: Cytotoxicity against human SK-MEL-2 cells assessed as growth inhibition at 10 uM after 48 hrs by SRB assay; conditions: SK-MEL-2, 48 h, read-out: GI
[14] = tested on: LOX IMVI; assay: Cytotoxicity against human LOXIMVI cells assessed as growth inhibition at 10 uM after 48 hrs by SRB assay; conditions: read-out: GI
[15] = Cytotoxicity against human OVCAR5 cells assessed as growth inhibition at 10 uM after 48 hrs by SRB assay; conditions: OVCAR-5, 48 h, read-out: GI
[16] = tested on: SNB-19; assay: Cytotoxicity against human SNB19 cells assessed as growth inhibition at 10 uM after 48 hrs by SRB assay; conditions: SNB-19, 48 h, read-out: GI
[17] = tested on: NCI-H226; assay: Cytotoxicity against human NCI-H226 cells assessed as growth inhibition at 10 uM after 48 hrs by SRB assay; conditions: NCI-H226, 48 h, read-out: GI
[18] = Cytotoxicity against human EKVX cells assessed as growth inhibition at 10 uM after 48 hrs by SRB assay; conditions: read-out: GI

SMILES: C=CCn1c(C)nc2ccc(Nc3nc(Nc4ccc(F)cc4)nc4ccccc34)cc21
- inhibition of growth at 10 µM [1]: 30%
- inhibition of growth at 10 µM [2]: 30%
- inhibition of growth at 10 µM [3]: 30%
- inhibition of growth at 10 µM [4]: 40%
- inhibition of growth at 10 µM [5]: 40%
- inhibition of growth at 10 µM [6]: 30%
- inhibition of growth at 10 µM [7]: 50%
- inhibition of growth at 10 µM [8]: 40%
- inhibition of growth at 10 µM [9]: 40%
- inhibition of growth at 10 µM [10]: 30%
- inhibition of growth at 10 µM [11]: 50%
- inhibition of growth at 10 µM [12]: 30%
- inhibition of growth at 10 µM [13]: 40%
- inhibition of growth at 10 µM [14]: 50%

SMILES: C=CCn1c(C)nc2ccc(Nc3nc(Nc4ccc5nc(C)n(CC=C)c5c4)c4ccccc4n3)cc21
- inhibition of growth at 10 µM [15]: 70%
- inhibition of growth at 10 µM [16]: 50%
- inhibition of growth at 10 µM [17]: 30%
- inhibition of growth at 10 µM [18]: 90%
